molecular target: T1, LPAAT-β (Homo sapiens, UniProt O15120); assay: LPAAT-β cell-free assay (colorimetric primary screen, radiometric/fluorescent TLC secondary assay); assay type: biochemical; conditions: Sf9 cell membrane overexpressing LPAAT-β
T1 construct: the full-length human LPAAT-β cDNA was amplified by PCR; poly-histidine tag (from pFastBac HTc vector) (N); made in house; host or cells: Sf9 insect cells (baculovirus); membrane fraction used
T1 sequence (O15120 24-278): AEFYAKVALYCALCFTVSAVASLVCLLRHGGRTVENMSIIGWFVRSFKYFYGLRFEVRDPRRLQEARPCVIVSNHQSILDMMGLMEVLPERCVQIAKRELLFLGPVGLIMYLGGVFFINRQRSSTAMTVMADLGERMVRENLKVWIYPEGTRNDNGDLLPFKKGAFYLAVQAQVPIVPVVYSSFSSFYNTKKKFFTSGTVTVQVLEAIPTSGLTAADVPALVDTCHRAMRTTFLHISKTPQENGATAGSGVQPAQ
From the text: A. Production of Recombinant LPAAT-β for Assays
For the construction of Baculovirus expression vectors, the full-length human LPAAT-β cDNA was amplified by PCR from the DNA template pCE9.LPAAT-β (West et al., DNA Cell Biol. 16:691-701 (1997)) using the primers 5′-[…] […] […] […]-3′ (olpb1F; SEQ ID NO:1) and 5′-[…] […] […]-3′ (olpb1R; SEQ ID NO:2). The ˜870 bp fragment generated was reamplified by PCR using the primers 5′[…] […] […] […] ATC-3′ (olpb2F; SEQ ID NO:3) and 5′-[…] […] […]-3′ (olpb1R; SEQ ID NO:2). The ˜890 bp fragment generated was then cleaved with Sal I and Xba I for insertion into pFastBac™ HTc vector (Life Technologies, Gaithersberg, Md.) between the Sal I and Xba I sites for the generation of the plasmid pFB.LPAAT-β. This plasmid was then transformed into E. coli DH10Bac™ (Life Technologies, Gaithersberg, Md.) for the generation of recombinant Bacmid DNA for transfection in HighFive (Invitrogen, San Diego, Calif.) or SF9 insect cells for the production of recombinant Baculovirus stocks using the protocol described in the Bac-to-Bac® Baculovirus Expression System (Life Technologies, Gaithersberg, Md.), a eukaryotic expression system for generating recombinant baculovirus through site-specific transposition in E. coli. Viral stocks harvested from the transfected cells can then be used to infect fresh insect cells for the subsequence expression of LPAAT-β fusion protein with a poly-histidine tag and a myc-epitope near its N-terminus. The membrane fraction from these Sf9 cells would be the source of LPAAT enzyme.
B. Preparation of Cell Membranes from Sf9 Cells
For the preparation of membranes from Sf9 Cells, all steps are performed on ice or at 4° C. Sf9 cell pellets (˜10^8 cells) were thawed and resuspended in 1-2 ml of buffer A (20 mM Hepes, pH 7.5, 1 mM DTT, 1 mM EDTA, 20% w/v glycerol, 1 mM Benzamidine, 1 μg/ml soybean trypsin inhibitor (SBTI), 1 μg/ml pepstatin A) w/o DTT but with 1 mM Pefabloc. The cells were lysed by sonication using a Branson Sonifier at output=2, duty cycle=2, 10 pulses each at 10s. with the tip of small sonicator probe submerged but not touching the walls. DTT was then added to 1 mM from a 1 M stock. The samples were centrifuged at 1500 rpm for 5 min. The low speed supernatant was saved and centrifuged (TLA 100.3 rotor, polycarbonate tubes, 2 ml/tube or 1.5 ml/tube minimum) at 100000×g for 1 hr. The high speed pellet was resuspend in Buffer A with a probe sonicator (10 pulses @ output #2 and duty cycle 20%) as a source of LPAAT enzyme.
C. Assay of LPAAT-β Activity
LPAAT-β catalyzes the transfer of an acyl group from a donor such as acyl-CoA to LPA. The transfer of the acyl group from acyl-CoA to LPA leads to the release of free CoA, which can be reacted with the thiol reagent, 5,5′-dithiobis(2-nitrobenzoic acid) (DTNB). The reaction between DTNB and the free sulfhydryl group from CoA generates a yellow-colored product, 3-carboxylato-4-nitrothiophenolate (CNP), that absorbs at 413 nm. LPAAT-β derived from Sf9 cell membrane overexpressing LPAAT-β were resuspended in HEPES saline buffer (20 mM HEPES pH 7.5, 150 mM NaCl), 1 mg/ml BSA and 72 μl aliquots were distributed into 96-well microtiter plates. 8 μl of compound of interest at 200 μM dissolved in 100% DMSO was added into each well. 20 μl of 1 mM 18:1-CoA and 1 mM sn-1-18:1 lysoPA was then added to each well to initiate the reaction and allowed to run at room temperature for 25 min. 100 μl of 1 mM DTNB in 100% ethanol was then added to each well to quench the reaction and for color development. The absorbance at 405 nm, measured using a spectrophotometer plate reader, is proportional to the activity of LPAAT-β in the sample. This colorimetric assay was used for the high throughput screening of LPAAT inhibitors.

Compound	IC50 [nM]
Cc1nc(Nc2ccc3cn[nH]c3c2)nc(-c2cc(Cl)ccc2C)n1 [Example 22, [4-(5-Chloro-2-methyl-phenyl)-6-methyl-[1,3,5]triazin-2-yl]-(1H-indazol-6-yl)-amine]	13
Cc1nc(Nc2ccc(Br)cc2)nc(-c2cc(Cl)ccc2C)n1 [Example 23]	14
CCc1nc(Nc2ccc(Br)cc2)nc(-c2cc(Cl)ccc2C)n1 [Example 24]	700
Cc1ccc(Cl)cc1-c1nc(Cl)nc(Nc2ccc3cn[nH]c3c2)n1 [Example 26, [4-Chloro-6-(5-chloro-2-methyl-phenyl)-[1,3,5]triazin-2-yl]-(1H-indazol-6-yl)-amine]	4
NCc1nc(Nc2ccc(Br)cc2)nc(-c2cc(Cl)ccc2Cl)n1 [Example 27]	2700
Cc1ccc(Cl)cc1-c1nc(C#N)nc(Nc2ccc(Br)cc2)n1 [Example 28]	420
CSc1nc(Nc2ccc(Br)cc2)nc(-c2cc(Cl)ccc2C)n1 [Example 29, (4-Bromo-phenyl)-[4-(5-chloro-2-methyl-phenyl)-6-methylsulfanyl-[1,3,5]triazin-2-yl]-amine]	1100
Cc1ccc(Cl)cc1-c1nc(Cl)nc(Nc2ccc([N+](=O)[O-])cc2)n1 [Example 30, [6-(5-Chloro-2-methyl-phenyl)-2-chloro-3-yl-[1,3,5]-triazin-4-yl]-(4-nitro-phenyl)-amine]	10
Cc1ccc(Cl)cc1-c1nc(Nc2ccc(Cl)cc2)nc(N2CCCCC2)n1 [Example 31]	6000
Cc1ccc(Cl)cc1-c1ncnc(Nc2ccc(Cl)cc2)n1 [Example 33, [6-(5-Chloro-2-methyl-phenyl)-[1,3,5]triazin-4-yl]-(4-chloro-phenyl)-amine]	240
CNc1cc(Nc2nc(N)nc(-c3cc(Cl)ccc3C)n2)ccc1Cl [Example 34, N-(4-Chloro-3-methylamino-phenyl)-6-(5-chloro-2-methyl-phenyl)-[1,3,5]triazine-2,4-diamine]	160
Cc1ccc(Cl)cc1-c1nc(Cl)nc(Nc2ccc(N=[N+]=[N-])cc2)n1 [Example 35, [6-(5-Chloro-2-methyl-phenyl)-2-chloro-3-yl-[1,3,5]-triazin-4-yl]-(4-azido-phenyl)-amine]	130
Cc1ccc(Cl)cc1-c1nc(N)nc(Nc2ccc(N=[N+]=[N-])cc2)n1 [Example 36, 6-(5-Chloro-2-methyl-phenyl)-N-(4-azido-phenyl)-amino-[1,3,5]triazine-2,4-diamine]	880
Cc1ccc(Cl)cc1-c1nc(N)nc(Nc2ccc3c(c2)CCC3)n1 [Example 37, 6-(5-Chloro-2-methyl-phenyl)-N-indan-5-yl-[1,3,5]triazine-2,4-diamine]	590
CCc1ccc(Nc2nc(N)nc(-c3cc(Cl)ccc3C)n2)cc1 [Example 38, 6-(5-Chloro-2-methyl-phenyl)-N-(4-ethyl-phenyl)-[1,3,5]triazine-2,4-diamine]	1000
Cc1ccc(Nc2nc(N)nc(-c3cc(Cl)ccc3C)n2)cc1 [Example 39, 6-(5-Chloro-2-methyl-phenyl)-N-p-tolyl-[1,3,5]triazine-2,4-diamine]	320

Compound	IC50 [nM]
Nc1nc(Nc2ccc(Br)cc2)nc(-c2cc(Cl)ccc2C(F)(F)F)n1 [Example 40, N-(4-bromophenyl)-6-(5-chloro-2-trifluoromethylphenyl)-[1,3,5]triazine-2,4-diamine]	2600
C#Cc1ccc(Nc2nc(N)nc(-c3cc(Cl)ccc3C)n2)cc1 [Example 42, 6-(5-Chloro-2-methyl-phenyl)-N-(4-ethynyl-phenyl)-[1,3,5]triazine-2,4-diamine]	280
CNC(=O)c1cc(Nc2nc(N)nc(-c3cc(Cl)ccc3C)n2)ccc1Cl [Example 43, 5-[4-amino-6-(5-chloro-2-methylphenyl)-[1,3,5]triazin-2-ylamino]-2-chloro-N-methylbenzamide]	400
CNc1ccc(Cl)cc1-c1nc(N)nc(Nc2ccc(Cl)cc2)n1 [Example 44, 6-(5-Chloro-2-methylaminophenyl)-N-(4-chlorophenyl)-[1,3,5]triazine-2,4-diamine]	1500
Nc1nc(Nc2ccc(Cl)cc2)nc(-c2cc(Br)ccc2Cl)n1 [Example 45, 6-(5-Bromo-2-chloro-phenyl)-N-(4-chloro-phenyl)-[1,3,5]triazine-2,4-diamine]	40
Nc1nc(Nc2ccc(CO)cc2)nc(-c2cc(Cl)ccc2Cl)n1 [Example 46, {4-[4-Amino-6-(2,5-dichloro-phenyl)-[1,3,5]triazin-2-ylamino]-phenyl}-methanol]	440
CN(C)c1ccc(Cl)cc1-c1nc(N)nc(Nc2ccc(Cl)cc2)n1 [Example 47, 6-(5-Chloro-2-dimethylaminophenyl)-N-(4-chlorophenyl)-[1,3,5]triazine-2,4-diamine]	140
Nc1nc(Nc2ccc3cn[nH]c3c2)nc(-c2cc(Cl)ccc2Cl)n1 [Example 48, 6-(2,5-Dichloro-phenyl)-N-(1H-indazol-6-yl)-[1,3,5]triazine-2,4-diamine]	110
Cc1ccc(Nc2nc(N)nc(-c3cc(Cl)ccc3Cl)n2)cc1 [Example 49, 6-(2,5-Dichloro-phenyl)-N-p-tolyl-[1,3,5]triazine-2,4-diamine]	210
CCCOc1ccc(Cl)cc1-c1nc(N)nc(Nc2ccc(Cl)cc2)n1 [Example 50, N-(4-Chloro-phenyl)-6-(5-chloro-2-propoxy-phenyl)-[1,3,5]triazine-2,4-diamine]	200
CCOc1ccc(Cl)cc1-c1nc(N)nc(Nc2ccc3cn[nH]c3c2)n1 [Example 51, 6-(5-Chloro-2-ethoxy-phenyl)-N-(1H-indazol-6-yl)-[1,3,5]triazine-2,4-diamine]	600
CC(C)Oc1ccc(Cl)cc1-c1nc(N)nc(Nc2ccc(Cl)cc2)n1 [Example 52, 6-(5-Chloro-2-isopropoxy-phenyl)-N-(4-chloro-phenyl)-[1,3,5]triazine-2,4-diamine]	620
CCOc1ccc(Cl)cc1-c1nc(N)nc(Nc2ccc(CO)cc2)n1 [Example 53, {4-[4-Amino-6-(5-chloro-2-ethoxy-phenyl) [1,3,5]triazin-2-ylamino]-phenyl}-methanol]	1800
CCOc1ccc(Cl)cc1-c1nc(N)nc(Nc2ccc([N+](=O)[O-])cc2)n1 [Example 54, 6-(5-Chloro-2-ethoxyphenyl)-N-(4-nitrophenyl)-[1,3,5]triazine-2,4-diamine]	120
CCOc1ccc(Cl)cc1-c1nc(N)nc(Nc2ccc3c(c2)OCO3)n1 [Example 55, N-Benzo[1.3]dioxol-5-yl-6-(5-chloro-2-ethoxy-phenyl)[1,3,5]triazine-2,4-diamine]	800
Cc1ccc(Cl)cc1-c1nc(N)nc(Nc2ccc(CCO)cc2)n1 [Example 57, 2-{4-[4-Amino-6-(5-chloro-2-methyl-phenyl)-[1,3,5]triazin-2-ylamino]-phenyl}-ethanol]	140
